Consider two molecules from publication PMC3368886, “ATPase Cycle and DNA Unwinding Kinetics of RecG Helicase” (PLoS ONE, 2012).

Common to all, as to type: biochemical
In one assay the target is T1, RecG (Thermotoga maritima, UniProt Q9WY48).
T1 construct: made in house
T1 sequence (Q9WY48 1-780): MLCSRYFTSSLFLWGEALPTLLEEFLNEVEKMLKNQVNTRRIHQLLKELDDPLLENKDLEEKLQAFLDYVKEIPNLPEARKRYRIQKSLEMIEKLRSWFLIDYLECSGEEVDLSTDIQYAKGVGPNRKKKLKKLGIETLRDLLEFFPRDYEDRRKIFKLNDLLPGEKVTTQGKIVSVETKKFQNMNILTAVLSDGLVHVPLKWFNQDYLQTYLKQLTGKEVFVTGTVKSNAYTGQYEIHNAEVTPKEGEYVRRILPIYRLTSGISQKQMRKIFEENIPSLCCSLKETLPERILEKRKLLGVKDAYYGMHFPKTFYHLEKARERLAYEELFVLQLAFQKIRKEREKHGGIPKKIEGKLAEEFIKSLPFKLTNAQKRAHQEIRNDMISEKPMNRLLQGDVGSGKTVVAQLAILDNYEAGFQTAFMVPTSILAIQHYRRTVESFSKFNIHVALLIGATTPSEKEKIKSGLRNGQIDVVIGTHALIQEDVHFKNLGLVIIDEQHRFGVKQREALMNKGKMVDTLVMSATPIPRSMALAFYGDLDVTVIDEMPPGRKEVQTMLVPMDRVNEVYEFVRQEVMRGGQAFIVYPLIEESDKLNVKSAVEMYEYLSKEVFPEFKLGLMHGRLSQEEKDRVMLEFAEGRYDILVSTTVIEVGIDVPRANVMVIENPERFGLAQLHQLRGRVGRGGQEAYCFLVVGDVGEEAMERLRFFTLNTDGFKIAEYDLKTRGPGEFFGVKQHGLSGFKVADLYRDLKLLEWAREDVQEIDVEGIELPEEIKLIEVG
The experiment in a line: Steady-state ATPase rate measurements with phosphate biosensor MDCC-PBP. The conditions noted are these: no DNA, 20°C, 10 nM RecG.

For assay [1], the target named is T2, RecG⋅DNA(A40:B40) (Thermotoga maritima, UniProt Q9WY48).
T2 construct: made in house
T2 sequence (Q9WY48 1-780): T1 sequence (Q9WY48 1-780)
The experiment in a line: Kinetic model simulation of single turnover of mantATP. The procedure: In order to test the data obtained with mantATP for consistency, a simple kinetic model for the ATPase mechanism was used to simulate the data in Figure 4A. The model was based on the scheme in Figure 2A, but included a two-step triphosphate binding as in Figure 2B. The model assumed that Pi release is irreversible and mantADP remains bound under these conditions as its K d (<50 nM) is much less than the experimental concentrations. The difference in fluorescence intensity between protein-bound mantATP and mantADP was included in the modeling with bound mantATP representing 20% of the overall increase, as shown experimentally. The best-fit simulation is shown in Figure 4B, which gave mantATP binding at 5.7 s^−1, followed by a rapid step (“conformation change”) of 30 s^−1, hydrolysis at 0.25 s^−1 and Pi release is fast (>10 s^−1). […] There is a discrepancy with the fit to the data at long times, as the experimental traces are slightly biphasic, which could be due to a small proportion of the protein having modified activity due to damage, for example.
Data were fitted to theoretical equations using the stopped-flow software or Grafit. Kinetic simulations were performed using Berkeley Madonna (Version 8.3, University of California at Berkeley) and using Global Kinetic Explorer (Kintek). Global fits were performed using Global Kinetic Explorer.

Assay [2] addresses T2, RecG⋅DNA(A40:B40). As to the kind of experiment: Single turnover mant fluorescence, excess RecG⋅DNA over mantATP. How it is done:
Extra information relating to changes in a single ATPase cycle can be obtained by mixing excess RecG⋅DNA(A40:B40) with mantATP (Figure 4A). […] The first change in fluorescence is presumably due to binding. After fitting to a double exponential, the observed rate constant for the initial change was linearly dependent on RecG concentration over the small range possible (0.5 µM –2.5 µM), limited by protein precipitation at higher concentrations. Due to the low concentrations, a hyperbolic dependence would not be observed. The observed rate constant of the second increase in fluorescence, 0.22 (±0.05) s^−1 (Figure 4A), was independent of RecG concentration. This second phase is likely to be due to the cleavage step, leading to the formation of bound mantADP.
Figure 4 Kinetic measurement of mantATP with excess of RecG and DNA: binding, hydrolysis and Pi release. The concentrations for all experiments were 0.5 µM mantATP, 2.5 µM RecG, 5 µM DNA (A40:B40) and 10 µM MDCC-PBP (for Pi measurement). All measurements were carried out at 20°C in the buffer described in Materials and Methods. (A) Time course of mant fluorescence (solid line), mantADP formation (circles) and Pi release (dashed line), measured as described in materials and methods. […] (B) Simulation of these time courses, based upon a global model for a single turnover of mantATP as described in the text. (C) The time course of mant fluorescence upon mixing 0.5 µM mantATP and 2.5 µM RecG with 5 µM DNA junction (A40:B40) after a first mixing of 5 µM RecG and 1 µM mantATP and aging for 1 s.
Stopped-flow experiments were performed in a HiTech SF61DX2 apparatus (TgK Scientific Ltd, Bradford-on-Avon, UK) with a mercury-xenon light source and HiTech KinetAsyst 3 or Kinetic Studio 1 software. For MDCC-PBP fluorescence, the excitation wavelength used was 436 nm and a 455 nm cut-off filter (Schott glass) used to collect emitted light. The signal was calibrated using known concentrations of Pi. The solutions contained the Pi mop, to minimize phosphate contamination and comprising 0.01 unit ml^−1 bacterial purine nucleoside phosphorylase and 200 µM 7-methylguanosine. For mant fluorescence, 366 nm was used to excite and a 400 nm cut-off filter (Schott glass) used to collect light. Measurements of Cy3 fluorescence used 547 nm excitation and a 570 nm cut-off filter. In experiments described, the quoted concentrations are those in the mixing chamber, except where stated. Data were fitted to theoretical curves using the HiTech software or Grafit.

“And” between values parts separate entries of the source, which are not always exact repeats. Equal entries are not always repeated.

As to `Nc1ncnc2c1ncn2[C@@H]1O[C@H](COP(=O)(O)OP(=O)(O)OP(=O)(O)O)[C@@H](O)[C@H]1O` [ATP], on RecG, the K m is on record as 7.5 (±3.1) µM and the k cat was 0.2 (±0.1) s^−1.
As to `CNc1ccccc1C(=O)O[C@H]1[C@@H](O)[C@H](n2cnc3c(N)ncnc32)O[C@@H]1COP(=O)(O)OP(=O)(O)OP(=O)(O)O` [mantATP, 2′(3′)-O-(N-methylanthraniloyl)ATP], on RecG⋅DNA(A40:B40) [1], the “Pi release (best-fit simulation)” value is over 10 s⁻¹, the “hydrolysis (best-fit simulation)” value is 0.25 s⁻¹, the “mantATP binding (best-fit simulation)” value was 5.7 s⁻¹ and the “rapid step (conformation change) (best-fit simulation)” value is 30 s⁻¹. Moreover, the “observed rate constant of the second increase in fluorescence” value at RecG⋅DNA(A40:B40) [2] (0.5 µM mantATP, excess RecG⋅DNA, independent of RecG concentration) is given as 0.22 (±0.05) s^−1. Moreover, on RecG⋅DNA(A40:B40) [2] (20°C), the “k +2 (cleavage step)” value is 0.2 s⁻¹ and 0.22 s⁻¹. The “initial small increase in fluorescence as part of overall change” value on RecG⋅DNA(A40:B40) [2] (excess RecG⋅DNA over mantATP) is about 20%. The “fluorescence intensity increase of bound nucleotide relative to free nucleotide” value on RecG⋅DNA(A40:B40) [2] (excess RecG⋅DNA(A40:B40)) was 1.5 fold.
